# According to patent US11897850B1, “N′-(2-(5-(4-chlorophenyl)-1,3,4-oxadiazol-2-ylthio)acetoxy)-4-methoxybenzimidamide as an antimicrobial compound” (KING FAISAL UNIVERSITY, priority 2023, dated 2024):
# What was measured:
# Format in all cases: cell-based
# Staphylococcus aureus = test: Agar plate disc-diffusion, antibacterial activity by inhibition zone; conditions: nutrient agar, 37° C., 48 h
# Experimental: (§1) The agar plate disc-diffusion method was applied. […] The discs were then placed onto the surface of agar plates (nutrient agar for bacteria and Sabouraud's dextrose agar for fungi) seeded with the test organism. Each plate contained 15 mL of the agar medium, previously seeded with 0.2 mL of the broth culture of each organism pregrown for 18 h. The plates were incubated at 37° C. for 48 h, and 72 h for fungi. The inhibition zones was measured in mm. Discs impregnated with DMSO were used as a control, and its inhibition zone was subtracted from the tested compound actual inhibition zone.
# (§2) The results of the antimicrobial testing can be observed in Tables 1 and 2, below, using ciprofloxacin as a reference.
# Bacillus cereus = test: as above; conditions: nutrient agar, 37° C., 48 h
# Experimental: as §1, §2
# Escherichia coli = test: as above; conditions: nutrient agar, 37° C., 48 h
# Experimental: as §1, §2
# Pseudomonas aeruginosa = test: as above; conditions: nutrient agar, 37° C., 48 h
# Experimental: as §1, §2
# Aspergillus flavus = test: Agar plate disc-diffusion, antifungal activity by inhibition zone; conditions: Sabouraud's dextrose agar, 72 h
# Experimental: as §1, §2
# [1] = tested on: Chrysosporium keratinophilum; test: as above; conditions: Sabouraud's dextrose agar, 72 h
# Experimental: The agar plate disc-diffusion method was applied. Sterilized filter papers (6 mm in diameter) were wetted with 10 μL of a solution N′-(2-(5-(4-chlorophenyl)-1,3,4-oxadiazol-2-ylthio)acetoxy)-4-methoxybenzimidamide (3) to be tested, containing 10 mg/mL in DMSO, and the discs were allowed to air dry. The discs were then placed onto the surface of agar plates (nutrient agar for bacteria and Sabouraud's dextrose agar for fungi) seeded with the test organism. Each plate contained 15 mL of the agar medium, previously seeded with 0.2 mL of the broth culture of each organism pregrown for 18 h. The plates were incubated at 37° C. for 48 h, and 72 h for fungi. The inhibition zones was measured in mm. Discs impregnated with DMSO were used as a control, and its inhibition zone was subtracted from the tested compound actual inhibition zone.
# as §2
# [2] = A = concentration of comp. = 10,000 μL
# [3] = B = concentration of comp. = 30,000 μL
# [4] = C = concentration of comp. = 50,000 μL
Structure (SMILES),inhibition zone (Staphylococcus aureus; [2]) [mm],inhibition zone (Staphylococcus aureus; [3]) [mm],inhibition zone (Staphylococcus aureus; [4]) [mm],inhibition zone (Bacillus cereus; [2]) [mm],inhibition zone (Bacillus cereus; [3]) [mm],inhibition zone (Bacillus cereus; [4]) [mm],inhibition zone (Escherichia coli; [2]) [mm],inhibition zone (Escherichia coli; [3]) [mm],inhibition zone (Escherichia coli; [4]) [mm],inhibition zone (Pseudomonas aeruginosa; [2]) [mm],inhibition zone (Pseudomonas aeruginosa; [3]) [mm],inhibition zone (Pseudomonas aeruginosa; [4]) [mm],inhibition zone (Aspergillus flavus; [2]) [mm],inhibition zone (Aspergillus flavus; [3]) [mm],inhibition zone (Aspergillus flavus; [4]) [mm],"inhibition zone [1, 2] [mm]","inhibition zone [1, 3] [mm]","inhibition zone [1, 4] [mm]"
"COc1ccc(/C(N)=N/OC(=O)CSc2nnc(-c3ccc(Cl)cc3)o2)cc1 [Compound 3, N′-(2-(5-(4-chlorophenyl)-1,3,4-oxadiazol-2-ylthio)acetoxy)-4-methoxybenzimidamide]",20,24,36,28,31,39,29,38,47,24,28,40,21,22,35,24,28,41
"O=C(O)c1cn(C2CC2)c2cc(N3CCNCC3)c(F)cc2c1=O [Cip., ciprofloxacin]",43,44,53,29,30,42,30,39,60,29,30,53,29,30,42,29,30,53
